From US11230555B2, “Bicyclic RORγ modulators” (Escalier Biosciences B.V., priority 2018, dated 2022)

Each compound was assayed against T1, RORγt (Homo sapiens, UniProt P51449) (assay: Gal4 ligand binding assay (RORγt Gal fusion reporter assay)). Details: inverse agonists, luciferase reporter, 24h.
T1 construct: purchased reporter-cell kit
T1 sequence (P51449 269-508 limits assumed): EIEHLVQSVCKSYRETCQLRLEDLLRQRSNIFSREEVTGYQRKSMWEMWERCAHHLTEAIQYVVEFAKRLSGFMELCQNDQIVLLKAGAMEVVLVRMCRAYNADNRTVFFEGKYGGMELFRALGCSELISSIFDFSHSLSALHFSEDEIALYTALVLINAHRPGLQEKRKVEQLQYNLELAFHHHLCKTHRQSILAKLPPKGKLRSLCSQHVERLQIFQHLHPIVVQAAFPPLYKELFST
Assay type: cell-based
In short: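 GAL4-DBD/RORγ(t) fusion stably expressed with a Gal4-UAS luciferase reporter in […] cells, which are constitutively active. Compounds were given as 2× media with 10 points from 60 μM to 3 nM (final DMSO 0.2%) for 24 h at 37° C, 5% CO2. Luminescence was normalized to DMSO control wells.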

SMILES	IC50
CS(=O)(=O)N1C2CCC1CN(Cc1ccc(-c3ccc(C(O)(C(F)(F)F)C(F)(F)F)cc3)c(Cl)c1)C2 [Example 55, 2-(2′-chloro-4′-((8-(methylsulfonyl)-3,8-diazabicyclo[3.2.1]octan-3-yl)methyl)-[1,1′-biphenyl]-4-yl)-1,1,1,3,3,3-hexafluoropropan-2-ol]	50 to 250 nM
CS(=O)(=O)N1C2CCC1CN(Cc1ccc(-c3ccc(C(O)(C(F)(F)F)C(F)(F)F)cc3)c(C(F)(F)F)c1)C2 [Example 57, 1,1,1,3,3,3-hexafluoro-2-(4′-((8-(methylsulfonyl)-3,8-diazabicyclo[3.2.1]octan-3-yl)methyl)-2′-(trifluoromethyl)-[1,1′-biphenyl]-4-yl)propan-2-ol]	50 to 250 nM
CCS(=O)(=O)N1C2CCC1CN(Cc1ccc(-c3ccc(C(O)(C(F)(F)F)C(F)(F)F)cc3)c(C)c1)C2 [Example 69, 2-(4′-((8-(ethylsulfonyl)-3,8-diazabicyclo[3.2.1]octan-3-yl)methyl)-2'-methyl-[1,1′-biphenyl]-4-yl)-1,1,1,3,3,3-hexafluoropropan-2-ol]	> 250 nM
CCc1nc(CN2CC3CCC(C2)N3S(C)(=O)=O)ccc1-c1ccc(C(O)(C(F)(F)F)C(F)(F)F)cc1C [Example 5, 2-(4-(2-ethyl-6-((8-(methylsulfonyl)-3,8-diazabicyclo[3.2.1]octan-3-yl)methyl)pyridin-3-yl)-3-methylphenyl)-1,1,1,3,3,3-hexafluoropropan-2-ol]	> 250 nM
Cc1cc(CN2CC3CCC(C2)N3S(=O)(=O)C(F)(F)F)ccc1-c1ccc(C(O)(C(F)(F)F)C(F)(F)F)cc1 [Example 60, 1,1,1,3,3,3-hexafluoro-2-(2′-methyl-4′-((8-((trifluoromethyl)sulfonyl)-3,8-diazabicyclo[3.2.1]octan-3-yl)methyl)-[1,1′-biphenyl]-4-yl)propan-2-ol]	> 250 nM
Cc1cc(CN2CC3CCC(C2)N3C(=O)c2ccncc2)ccc1-c1ccc(C(O)(C(F)(F)F)C(F)(F)F)cc1 [Example 75, (3-((4′-(1,1,1,3,3,3-hexafluoro-2-hydroxypropan-2-yl)-2-methyl-[1,1′-biphenyl]-4-yl)methyl)-3,8-diazabicyclo[3.2.1]octan-8-yl)(pyridin-4-yl)methanone]	50 to 250 nM
CCc1c(F)c(CN2CC3CCC(C2)N3S(C)(=O)=O)cc(F)c1-c1ccc(C(O)(C(F)(F)F)C(F)(F)F)cc1F [Example 23, 2-(2′-ethyl-2,3′,6′-trifluoro-4′-((8-(methylsulfonyl)-3,8-diazabicyclo[3.2.1]octan-3-yl)methyl)-[1,1′-biphenyl]-4-yl)-1,1,1,3,3,3-hexafluoropropan-2-ol]	< 50 nM
Cc1cc(CN2CC3CCC2CN3Cc2ccncc2)ccc1-c1ccc(C(O)(C(F)(F)F)C(F)(F)F)cc1 (stereo not drawn) [Example 76, 1,1,1,3,3,3-hexafluoro-2-(2′-methyl-4′-((5-(pyridin-4-ylmethyl)-2,5-diazabicyclo[2.2.2]octan-2-yl)methyl)-[1,1′-biphenyl]-4-yl)propan-2-ol]	50 to 250 nM
Cc1cc(C(O)(C(F)(F)F)C(F)(F)F)ccc1-c1cc(F)c(CN2CC3CCC(C2)N3S(C)(=O)=O)cc1C(C)C [Example 20, 1,1,1,3,3,3-hexafluoro-2-(5′-fluoro-2′-isopropyl-2-methyl-4′-((8-(methylsulfonyl)-3,8-diazabicyclo[3.2.1]octan-3-yl)methyl)-[1,1′-biphenyl]-4-yl)propan-2-ol]	50 to 250 nM
